Where “and” joins values, the source holds several entries; their conditions need not be identical. Equal entries are not always repeated. Inconclusive results and toxic doses are left out.
Tested on: CD2F1 mice, L1210 leukemia ip, survival T/C
Test: NCI In Vivo Anticancer Drug Screen. Data for tumor model L1210 Leukemia (intraperitoneal) in CD2F1 (CDF1) mice
Conditions: endpoint: mean survival time, higher = longer survival
Outline: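 Antitumor effect is scored in animals hosting a serially transplanted tumor. Values compare compound-dosed animals against vehicle-only controls as a simple quotient.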

[1] = dose: 100.0 mg/kg/injection, schedule: Q01DX001 (ip), vehicle: saline with Tween-80
[2] = dose: 200.0 mg/kg/injection, schedule: Q01DX001 (ip), vehicle: saline with Tween-80
[3] = dose: 400.0 mg/kg/injection, schedule: Q01DX001 (ip), vehicle: saline with Tween-80
[4] = dose: 100.0 mg/kg/injection, schedule: Q01DX009 (ip), vehicle: saline with Tween-80
[5] = dose: 100.0 mg/kg/injection, schedule: Q04DX003 (ip), vehicle: saline with Tween-80
[6] = dose: 200.0 mg/kg/injection, schedule: Q01DX009 (ip), vehicle: saline with Tween-80
[7] = dose: 200.0 mg/kg/injection, schedule: Q04DX003 (ip), vehicle: saline with Tween-80
[8] = dose: 400.0 mg/kg/injection, schedule: Q01DX009 (ip), vehicle: saline with Tween-80
[9] = dose: 400.0 mg/kg/injection, schedule: Q04DX003 (ip), vehicle: saline with Tween-80
[10] = dose: 100.0 mg/kg/injection, schedule: Q04DX003 (ip), vehicle: saline
[11] = dose: 200.0 mg/kg/injection, schedule: Q04DX003 (ip), vehicle: saline
[12] = dose: 400.0 mg/kg/injection, schedule: Q04DX003 (ip), vehicle: saline
[13] = dose: 50.0 mg/kg/injection, schedule: Q01DX009 (ip), vehicle: saline with Tween-80
[14] = dose: 75.0 mg/kg/injection, schedule: Q01DX001 (ip), vehicle: saline
[15] = dose: 150.0 mg/kg/injection, schedule: Q01DX001 (ip), vehicle: saline

In the case of `CC(CCC1OC2CC3C4CCC5CC(OC(=O)c6ccccc6)CCC5(C)C4CCC3(C)C2C1C)COC(=O)c1ccccc1` (configuration not stated), the T/C (dose: 100.0 mg/kg/injection, schedule: Q04DX002 (ip), vehicle: saline with Tween-80) is reported as 90 % of control, the T/C (dose: 200.0 mg/kg/injection, schedule: Q04DX002 (ip), vehicle: saline with Tween-80) is reported as 94 % of control and the T/C (dose: 400.0 mg/kg/injection, schedule: Q04DX002 (ip), vehicle: saline with Tween-80) is reported as 86 % of control.
For `COC(=O)C1C2C=CC(CC2)C1C(=O)OC` (configuration not stated), the T/C [1] was 103 % of control, the T/C [2] was 88 % of control and the T/C [3] was 103 % of control.
In the case of `CCOC(=O)/C(C#N)=C1/C=CC=CN1`, the T/C [4] is reported as 98 % of control, the T/C [5] is reported as 102 % of control and the T/C [6] is reported as 102 % of control. The T/C [7] was 110 % of control, the T/C [8] was 100 % of control and the T/C [9] was 103 % of control.
With `Cc1ccc(S(=O)(=O)/C=C(/I)C(=O)c2ccccc2)cc1` the T/C (dose: 100.0 mg/kg/injection, schedule: Q01DX009 (ip), vehicle: saline) was 90 % of control, the T/C [10] was 100 % of control and the T/C (dose: 200.0 mg/kg/injection, schedule: Q01DX009 (ip), vehicle: saline) was 93 % of control. For the same molecule, the T/C [11] was 96 % of control, the T/C (dose: 400.0 mg/kg/injection, schedule: Q01DX009 (ip), vehicle: saline) was 88 % of control and the T/C [12] was 108 % of control.
In the case of `CCC(/C=C1\Oc2ccc(-c3ccccc3)cc2N1CC)=C\c1oc2ccc(-c3ccccc3)cc2[n+]1CC`, the T/C (dose: 4.4 mg/kg/injection, schedule: Q01DX009 (ip), vehicle: other) is reported as 117 % of control.
`CCCCCCCCCCCCCCCCOc1ccccc1NC(=O)CC(C)=O` was tested, and the T/C [5] was 96 % of control, the T/C [7] was 94 % of control and the T/C [9] was 95 % of control.
`CCCCN(CCCC)CCCN1C(=O)c2ccccc2C1=O` was tested, and the T/C (dose: 1.9 mg/kg/injection, schedule: Q01DX009 (ip), vehicle: saline) was 97 % of control, the T/C (dose: 3.7 mg/kg/injection, schedule: Q01DX009 (ip), vehicle: saline) was 107 % of control and the T/C (dose: 7.5 mg/kg/injection, schedule: Q01DX009 (ip), vehicle: saline) was 100 % of control. For the same molecule, the T/C (dose: 15.0 mg/kg/injection, schedule: Q01DX009 (ip), vehicle: saline) was 87 % of control and the T/C (dose: 30.0 mg/kg/injection, schedule: Q01DX009 (ip), vehicle: saline) was 89 % of control and 105 % of control.
`CC(CC(=O)O)(C(=O)O)S(=O)O` (configuration not stated) was tested, and the T/C (dose: 100.0 mg/kg/injection, schedule: Q04DX002 (ip), vehicle: other) was 97 % of control, the T/C (dose: 200.0 mg/kg/injection, schedule: Q04DX002 (ip), vehicle: other) was 100 % of control and the T/C (dose: 400.0 mg/kg/injection, schedule: Q04DX002 (ip), vehicle: other) was 100 % of control.
With `CCNC(=O)Nc1nc2ccccc2[nH]1` the T/C [13] was 101 % of control.
In the case of `O=C1CCCC2C(=O)CCCC12` (configuration not stated), the T/C [4] is reported as 97 % of control, the T/C [6] is reported as 103 % of control and the T/C [8] is reported as 103 % of control.
With `CCOc1ccc(Cl)cc1` the T/C [13] was 96 % of control and the T/C [4] was 98 % of control.
`O=c1cc(NCCCCc2ccccc2)[nH]c(=O)[nH]1` was tested, and the T/C [1] was 94 % of control, the T/C [2] was 91 % of control and the T/C [3] was 91 % of control.
With `O=C(Nc1ccccc1C(F)(F)F)c1cccc(Cl)c1` the T/C (dose: 100.0 mg/kg/injection, schedule: Q01DX009 (ip), vehicle: saline + alcohol) was 90 % of control, the T/C (dose: 100.0 mg/kg/injection, schedule: Q04DX003 (ip), vehicle: saline + alcohol) was 97 % of control and the T/C (dose: 200.0 mg/kg/injection, schedule: Q01DX009 (ip), vehicle: saline + alcohol) was 93 % of control. The T/C (dose: 200.0 mg/kg/injection, schedule: Q04DX003 (ip), vehicle: saline + alcohol) was 100 % of control, the T/C (dose: 400.0 mg/kg/injection, schedule: Q01DX009 (ip), vehicle: saline + alcohol) was 96 % of control and the T/C (dose: 400.0 mg/kg/injection, schedule: Q04DX003 (ip), vehicle: saline + alcohol) was 95 % of control.
For `CCN1CCC2OCOC2C1` (configuration not stated), the T/C [14] was 102 % of control and the T/C [15] was 102 % of control.
With `O=C(O)c1cc2ccccc2o1` the T/C [1] was 94 % of control, the T/C [5] was 95 % of control and the T/C [2] was 98 % of control. For the same molecule, the T/C [7] was 94 % of control.
With `O=C1NC(=S)NC(=O)C1Cc1ccccc1O` the T/C (dose: 100.0 mg/kg/injection, schedule: Q01DX001 (ip), vehicle: saline) was 100 % of control, the T/C (dose: 200.0 mg/kg/injection, schedule: Q01DX001 (ip), vehicle: saline) was 100 % of control and the T/C (dose: 400.0 mg/kg/injection, schedule: Q01DX001 (ip), vehicle: saline) was 101 % of control.
In the case of `Nc1ccccc1SC1CC(=O)N(c2ccccc2Cl)C1=O` (configuration not stated), the T/C [5] is reported as 93 % of control, the T/C [7] is reported as 89 % of control and the T/C [9] is reported as 89 % of control.
`OC1CC2CC2CC1O` (configuration not stated) was tested, and the T/C [5] was 103 % of control, the T/C [7] was 92 % of control and the T/C [9] was 96 % of control.
For `c1ccc(-c2nncnn2)cc1`, the T/C [5] was 92 % of control.
In the case of `Cc1ccnc(NS(=O)(=O)c2ccc(N=Nc3nc4[nH]c(N)nc(=S)c4[nH]3)cc2)n1`, the T/C (dose: 0.2 mg/kg/injection, schedule: Q01DX009 (ip), vehicle: Klucel (hydroxypropylcellulose) (HPC)) is reported as 96 % of control, the T/C (dose: 0.4 mg/kg/injection, schedule: Q01DX009 (ip), vehicle: Klucel (hydroxypropylcellulose) (HPC)) is reported as 106 % of control and the T/C (dose: 0.8 mg/kg/injection, schedule: Q01DX009 (ip), vehicle: Klucel (hydroxypropylcellulose) (HPC)) is reported as 106 % of control. For the same molecule, the T/C (dose: 1.56 mg/kg/injection, schedule: Q01DX009 (ip), vehicle: Klucel (hydroxypropylcellulose) (HPC)) was 203 % of control, the T/C (dose: 1.6 mg/kg/injection, schedule: Q01DX009 (ip), vehicle: Klucel (hydroxypropylcellulose) (HPC)) was 117 % of control and the T/C (dose: 3.13 mg/kg/injection, schedule: Q01DX009 (ip), vehicle: Klucel (hydroxypropylcellulose) (HPC)) was 150 % of control. For the same molecule, the T/C (dose: 6.25 mg/kg/injection, schedule: Q01DX009 (ip), vehicle: Klucel (hydroxypropylcellulose) (HPC)) was 117 % of control.
`CCN(CC)c1nc(N(CC)CC)nc(N(CC)CC)n1` was tested, and the T/C (dose: 25.0 mg/kg/injection, schedule: Q01DX009 (ip), vehicle: saline with Tween-80) was 93 % of control, the T/C [13] was 93 % of control and the T/C [4] was 95 % of control. The T/C [6] was 93 % of control.
In the case of `C[SeH]C.C[SeH]C.[Cl][Pt][Cl]`, the T/C (dose: 0.94 mg/kg/injection, schedule: Q04DX003 (ip), vehicle: saline) is reported as 100 % of control, the T/C (dose: 1.88 mg/kg/injection, schedule: Q04DX003 (ip), vehicle: saline) is reported as 97 % of control and the T/C (dose: 3.75 mg/kg/injection, schedule: Q04DX003 (ip), vehicle: saline) is reported as 97 % of control. The T/C (dose: 7.5 mg/kg/injection, schedule: Q04DX003 (ip), vehicle: saline) was 100 % of control, the T/C (dose: 15.0 mg/kg/injection, schedule: Q04DX003 (ip), vehicle: saline) was 100 % of control and the T/C (dose: 30.0 mg/kg/injection, schedule: Q04DX003 (ip), vehicle: saline) was 105 % of control.
With `OCCOc1ccc(Cl)cc1Cl` the T/C (dose: 75.0 mg/kg/injection, schedule: Q04DX003 (ip), vehicle: saline with Tween-80) was 98 % of control, the T/C (dose: 150.0 mg/kg/injection, schedule: Q04DX003 (ip), vehicle: saline with Tween-80) was 97 % of control and the T/C (dose: 300.0 mg/kg/injection, schedule: Q04DX003 (ip), vehicle: saline with Tween-80) was 98 % of control.
In the case of `CCOC(OCC)/C(C)=N/[N+](C)(C)C`, the T/C [14] is reported as 107 % of control and the T/C [15] is reported as 98 % of control.
For `O=C1/C(=C\c2ccccc2)C2OCC=C3CN4CCC56c7ccccc7N1C5C2C3CC46` (configuration not stated), the T/C (dose: 75.0 mg/kg/injection, schedule: Q01DX001 (ip), vehicle: other) was 95 % of control.
In the case of `CC1=CC(C)(C(Cl)Cl)C=CC1=O` (configuration not stated), the T/C (dose: 75.0 mg/kg/injection, schedule: Q01DX009 (ip), vehicle: saline with Tween-80) is reported as 101 % of control, the T/C [5] is reported as 102 % of control and the T/C (dose: 150.0 mg/kg/injection, schedule: Q01DX009 (ip), vehicle: saline with Tween-80) is reported as 101 % of control. The T/C [7] was 95 % of control, the T/C (dose: 300.0 mg/kg/injection, schedule: Q01DX009 (ip), vehicle: saline with Tween-80) was 98 % of control and the T/C [9] was 93 % of control.
`CCOc1cc(NCCCN)c2nc(OCc3ccccc3)ccc2c1` was tested, and the T/C [14] was 96 % of control.
In the case of `Cc1ccc(NC(=O)Nc2cccc(C(=O)O)c2)cc1[N+](=O)[O-]`, the T/C [13] is reported as 94 % of control, the T/C [4] is reported as 98 % of control and the T/C [6] is reported as 98 % of control.
`COc1nc(-c2ccncc2)nc(N(C)C)n1` was tested, and the T/C (dose: 4.5 mg/kg/injection, schedule: Q04DX002 (ip), vehicle: saline) was 98 % of control and the T/C (dose: 9.0 mg/kg/injection, schedule: Q04DX002 (ip), vehicle: saline) was 103 % of control.
`CNC(=S)N(/N=C/c1cc(Cl)cc(Cl)c1O)c1ccccc1` was tested, and the T/C [1] was 87 % of control, the T/C [2] was 87 % of control and the T/C [3] was 91 % of control.
In the case of `CCC(=O)C(C)N(C)C1CCCCC1` (configuration not stated), the T/C [10] is reported as 100 % of control, the T/C [11] is reported as 102 % of control and the T/C [12] is reported as 96 % of control.
